Legend:
Format in all cases: functional
HCT-15 = experiment: Cytotoxicity against human HCT15 cells assessed as cell growth at 0.1 uM after 48 hrs by sulforhodamine B assay relative to control; details: HCT-15, 48 h, read-out: Activity
SK-MEL-5 = experiment: Cytotoxicity against human SK-MEL-5 cells assessed as cell growth at 1 uM after 48 hrs by sulforhodamine B assay relative to control; details: SK-MEL-5, 48 h, read-out: Activity
NCI-H226 [1] = experiment: Cytotoxicity against human NCI-H226 cells assessed as cell growth at 10 uM after 48 hrs by sulforhodamine B assay relative to control; details: NCI-H226, 48 h, read-out: Activity
MDA-MB-435 [2] = experiment: Cytotoxicity against human MDA-MB-435 cells assessed as cell growth at 1 uM after 48 hrs by sulforhodamine B assay relative to control; details: MDA-MB-435, 48 h, read-out: Activity
OVCAR-8 = experiment: Cytotoxicity against human OVCAR8 cells assessed as cell growth at 0.01 uM after 48 hrs by sulforhodamine B assay relative to control; details: OVCAR-8, 48 h, read-out: Activity
UO-31 = experiment: Cytotoxicity against human UO31 cells assessed as cell growth at 100 uM after 48 hrs by sulforhodamine B assay relative to control; details: UO-31, 48 h, read-out: Activity
DU-145 = experiment: Cytotoxicity against human DU145 cells assessed as cell growth at 0.01 uM after 48 hrs by sulforhodamine B assay relative to control; details: DU-145, 48 h, read-out: Activity
OVCAR-3 = experiment: Cytotoxicity against human OVCAR3 cells assessed as growth inhibition after 48 hrs by sulforhodamine B assay; details: OVCAR-3, 48 h
HL-60(TB) = experiment: Cytotoxicity against human HL-60(TB) cells assessed as growth inhibition after 48 hrs by sulforhodamine B assay; details: HL-60, 48 h
K562 = experiment: Cytotoxicity against human K562 cells assessed as cell growth at 0.01 uM after 48 hrs by sulforhodamine B assay relative to control; details: K562, 48 h, read-out: Activity
Malme-3M = experiment: Cytotoxicity against human MALME-3M cells assessed as cell growth at 10 uM after 48 hrs by sulforhodamine B assay relative to control; details: read-out: Activity
T47D = experiment: Cytotoxicity against human T47D cells assessed as cell growth at 0.01 uM after 48 hrs by sulforhodamine B assay relative to control; details: read-out: Activity
NCI-H226 [3] = experiment: Cytotoxicity against human NCI-H226 cells assessed as cell growth at 0.1 uM after 48 hrs by sulforhodamine B assay relative to control; details: NCI-H226, 48 h, read-out: Activity
CCRF-CEM = experiment: Cytotoxicity against human CCRF-CEM cells assessed as cell growth at 10 uM after 48 hrs by sulforhodamine B assay relative to control; details: read-out: Activity
SK-MEL-28 = experiment: Cytotoxicity against human SK-MEL-28 cells assessed as cell growth at 1 uM after 48 hrs by sulforhodamine B assay relative to control; details: SK-MEL-28, 48 h, read-out: Activity
A549 = experiment: Cytotoxicity against human A549/ATCC cells assessed as cell growth at 0.01 uM after 48 hrs by sulforhodamine B assay relative to control; details: A549, 48 h, read-out: Activity
M14 = experiment: Cytotoxicity against human M14 cells assessed as growth inhibition after 48 hrs by sulforhodamine B assay; details: M14, 48 h
PC-3 = experiment: Cytotoxicity against human PC3 cells assessed as cell growth at 100 uM after 48 hrs by sulforhodamine B assay relative to control; details: PC-3, 48 h, read-out: Activity
UACC-62 = experiment: Cytotoxicity against human UACC62 cells assessed as growth inhibition after 48 hrs by sulforhodamine B assay; details: UACC-62, 48 h
ACHN = experiment: Cytotoxicity against human ACHN cells assessed as cell growth at 0.1 uM after 48 hrs by sulforhodamine B assay relative to control; details: read-out: Activity
TK-10 [4] = experiment: Cytotoxicity against human TK10 cells assessed as cell growth at 0.01 uM after 48 hrs by sulforhodamine B assay relative to control; details: TK-10, 48 h, read-out: Activity
NCI-H226 [5] = experiment: Cytotoxicity against human NCI-H226 cells assessed as cell growth at 100 uM after 48 hrs by sulforhodamine B assay relative to control; details: NCI-H226, 48 h, read-out: Activity
TK-10 [6] = experiment: Cytotoxicity against human TK10 cells assessed as growth inhibition after 48 hrs by sulforhodamine B assay; details: TK-10, 48 h
NCI-H322M = experiment: Cytotoxicity against human NCI-H322M cells assessed as cell growth at 0.01 uM after 48 hrs by sulforhodamine B assay relative to control; details: read-out: Activity
786-0 = experiment: Cytotoxicity against human 786-0 cells assessed as cell growth at 0.1 uM after 48 hrs by sulforhodamine B assay relative to control; details: 786-0, 48 h, read-out: Activity
UACC-257 = experiment: Cytotoxicity against human UACC257 cells assessed as cell growth at 0.1 uM after 48 hrs by sulforhodamine B assay relative to control; details: UACC-257, 48 h, read-out: Activity
NCI-H522 [7] = experiment: Cytotoxicity against human NCI-H522 cells assessed as cell growth at 10 uM after 48 hrs by sulforhodamine B assay relative to control; details: NCI-H522, 48 h, read-out: Activity
A498 [8] = experiment: Cytotoxicity against human A498 cells assessed as cell growth at 1 uM after 48 hrs by sulforhodamine B assay relative to control; details: A498, 48 h, read-out: Activity
SF-268 = experiment: Cytotoxicity against human SF268 cells assessed as cell growth at 0.01 uM after 48 hrs by sulforhodamine B assay relative to control; details: SF-268, 48 h, read-out: Activity
MDA-MB-435 [9] = experiment: Cytotoxicity against human MDA-MB-435 cells assessed as cell growth at 0.01 uM after 48 hrs by sulforhodamine B assay relative to control; details: MDA-MB-435, 48 h, read-out: Activity
NCI-H522 [10] = experiment: Cytotoxicity against human NCI-H522 cells assessed as cell growth at 0.1 uM after 48 hrs by sulforhodamine B assay relative to control; details: NCI-H522, 48 h, read-out: Activity
NCI-H460 = experiment: Cytotoxicity against human NCI-H460 cells assessed as cell growth at 1 uM after 48 hrs by sulforhodamine B assay relative to control; details: NCI-H460, 48 h, read-out: Activity
SF-539 = experiment: Cytotoxicity against human SF539 cells assessed as growth inhibition after 48 hrs by sulforhodamine B assay; details: SF-539, 48 h
A498 [11] = experiment: Cytotoxicity against human A498 cells assessed as cell growth at 0.01 uM after 48 hrs by sulforhodamine B assay relative to control; details: A498, 48 h, read-out: Activity
KM12 = experiment: Cytotoxicity against human KM12 cells assessed as growth inhibition after 48 hrs by sulforhodamine B assay; details: KM12, 48 h

COc1ccc(C(=O)/C=C/c2cc(-c3ccc4c(c3)OCO4)n[nH]2)cc1OC
growth at 0.1 µM (HCT-15): 95% | growth at 1 µM (SK-MEL-5): 95% | growth at 10 µM (NCI-H226 [1]): 1% | growth at 1 µM (MDA-MB-435 [2]): 96% | growth at 0.01 µM (OVCAR-8): 99% | growth at 100 µM (UO-31): -93% | growth at 0.01 µM (DU-145): 101% | LC50 (OVCAR-3): 14.3 µM | TGI (OVCAR-3): 4.61 µM | LC50 (HL-60(TB)): > 100 µM | TGI (HL-60(TB)): 11.8 µM | growth at 0.01 µM (K562): 96% | growth at 10 µM (Malme-3M): 41% | growth at 0.01 µM (T47D): 90% | growth at 0.1 µM (NCI-H226 [3]): 93% | growth at 10 µM (CCRF-CEM): -2% | growth at 1 µM (SK-MEL-28): 96% | growth at 0.01 µM (A549): 96% | LC50 (concentration killing 50% of cells) (M14): 58.4 µM | TGI (M14): 21.4 µM | growth at 100 µM (PC-3): -45% | LC50 (UACC-62): 40.9 µM | TGI (UACC-62): 14.8 µM | growth at 0.1 µM (ACHN): 100% | growth at 0.01 µM (TK-10 [4]): 91% | growth at 100 µM (NCI-H226 [5]): -20% | GI50 (TK-10 [6]): 2.88 µM | LC50 (TK-10 [6]): 70.4 µM | TGI (TK-10 [6]): 8.97 µM | growth at 0.01 µM (NCI-H322M): 93% | growth at 0.1 µM (786-0): 95% | growth at 0.1 µM (UACC-257): 95% | growth at 10 µM (NCI-H522 [7]): -45% | growth at 1 µM (A498 [8]): 72% | growth at 0.01 µM (SF-268): 93% | growth at 0.01 µM (MDA-MB-435 [9]): 98% | growth at 0.1 µM (NCI-H522 [10]): 87% | growth at 1 µM (NCI-H460): 87% | LC50 (concentration killing 50% of cells) (SF-539): 11.9 µM | TGI (SF-539): 4.47 µM | growth at 0.01 µM (A498 [11]): 78% | LC50 (KM12): 34.9 µM | TGI (KM12): 9.48 µM

COc1ccc(-c2cc(/C=C/C(=O)c3ccc(N)cc3)[nH]n2)cc1OC
growth at 0.1 µM (HCT-15): 95% | growth at 1 µM (SK-MEL-5): 94% | growth at 10 µM (NCI-H226 [1]): -13% | growth at 1 µM (MDA-MB-435 [2]): 94% | growth at 0.01 µM (OVCAR-8): 98% | growth at 100 µM (UO-31): -85% | growth at 0.01 µM (DU-145): 109% | GI50 (OVCAR-3): 1.92 µM | LC50 (OVCAR-3): 9.14 µM | TGI (OVCAR-3): 4.19 µM | GI50 (HL-60(TB)): 3.45 µM | LC50 (HL-60(TB)): > 100 µM | TGI (HL-60(TB)): > 100 µM | growth at 0.01 µM (K562): 99% | growth at 10 µM (Malme-3M): 37% | growth at 0.01 µM (T47D): 85% | growth at 0.1 µM (NCI-H226 [3]): 91% | growth at 10 µM (CCRF-CEM): -8% | growth at 1 µM (SK-MEL-28): 89% | growth at 0.01 µM (A549): 97% | GI50 (M14): 2.28 µM | LC50 (concentration killing 50% of cells) (M14): 15 µM | TGI (M14): 5.11 µM | growth at 100 µM (PC-3): -48% | GI50 (UACC-62): 3.11 µM | LC50 (UACC-62): 39.6 µM | TGI (UACC-62): 10.9 µM | growth at 0.1 µM (ACHN): 93% | growth at 0.01 µM (TK-10 [4]): 102% | growth at 100 µM (NCI-H226 [5]): -55% | GI50 (TK-10 [6]): 1.09 µM | LC50 (TK-10 [6]): 48.7 µM | TGI (TK-10 [6]): 23 µM | growth at 0.01 µM (NCI-H322M): 96% | growth at 0.1 µM (786-0): 95% | growth at 0.1 µM (UACC-257): 90% | growth at 10 µM (NCI-H522 [7]): -84% | growth at 1 µM (A498 [8]): 89% | growth at 0.01 µM (SF-268): 100% | growth at 0.01 µM (MDA-MB-435 [9]): 91% | growth at 0.1 µM (NCI-H522 [10]): 95% | growth at 1 µM (NCI-H460): 94% | GI50 (SF-539): 1.73 µM | LC50 (concentration killing 50% of cells) (SF-539): 7.19 µM | TGI (SF-539): 3.53 µM | growth at 0.01 µM (A498 [11]): 95% | GI50 (KM12): 1.68 µM | LC50 (KM12): 6.67 µM | TGI (KM12): 3.35 µM

— ChEMBL document CHEMBL4138123, “Design, synthesis and biological evaluation of novel pyrazolochalcones as potential modulators of PI3K/Akt/mTOR pathway and inducers of apoptosis in breast cancer cells” (Eur J Med Chem, 2017)
